This passage reports IC50 and viability, T/C results from PubChem BioAssay AID1918934 (Molecular Pharmacology Branch, DTP, NCI, 2023).

Molecules are shown by their SMILES. Where “and” joins values, the source holds several entries; their conditions need not be identical. Equal entries are not always repeated.

The experiment concerns 292921-168-R-J2-PDC complex spheroid viability. The experiment in a line: Anticancer human tumor 292921-168-R-J2-PDC patient-derived pancreatic carcinoma cell line growth inhibition. The settings on record: for viability, T/C: stronger effect = lower value. In a few lines: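 Complex spheroids of tumor cells with HUVEC and human MSCs, exposed to iadademstat combined with other agents. Each agent tested in half-log steps from near clinical Cmax (else 10 microM top), DMSO ≤0.25%.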

Setting [1] is: curve of first compound, second compound 0.1 µM.
The mark [2] stands for this setting: curve of first compound, second compound 0.316 µM.
[3] abbreviates: curve of first compound, second compound 1 µM.
The mark [4] stands for this setting: curve of first compound, second compound 3.16 µM.
Setting [5] is: curve of first compound, second compound 10 µM.
[6] abbreviates: second compound 0.1 µM, first compound 0.00316 µM.
Setting [7] is: second compound 0.1 µM, first compound 0.01 µM.
[8] abbreviates: second compound 0.1 µM, first compound 0.0316 µM.
The mark [9] stands for this setting: second compound 0.1 µM, first compound 0.1 µM.
The mark [10] stands for this setting: second compound 0.1 µM, first compound 0.316 µM.
Setting [11] is: second compound 0.1 µM, first compound 1 µM.
Where [12] appears, read: second compound 0.316 µM, first compound 0.00316 µM.
Where [13] appears, read: second compound 0.316 µM, first compound 0.01 µM.
Where [14] appears, read: second compound 0.316 µM, first compound 0.0316 µM.
Setting [15] is: second compound 0.316 µM, first compound 0.1 µM.
Setting [16] is: second compound 0.316 µM, first compound 0.316 µM.
Setting [17] is: second compound 0.316 µM, first compound 1 µM.
Setting [18] is: second compound 1 µM, first compound 0.00316 µM.
Setting [19] is: second compound 1 µM, first compound 0.01 µM.
Where [20] appears, read: second compound 1 µM, first compound 0.0316 µM.
Where [21] appears, read: second compound 1 µM, first compound 0.1 µM.
The mark [22] stands for this setting: second compound 1 µM, first compound 0.316 µM.
The mark [23] stands for this setting: second compound 1 µM, first compound 1 µM.
[24] abbreviates: second compound 3.16 µM, first compound 0.00316 µM.
Where [25] appears, read: second compound 3.16 µM, first compound 0.01 µM.
Setting [26] is: second compound 3.16 µM, first compound 0.0316 µM.
Where [27] appears, read: second compound 3.16 µM, first compound 0.1 µM.
Setting [28] is: second compound 3.16 µM, first compound 0.316 µM.
The mark [29] stands for this setting: second compound 3.16 µM, first compound 1 µM.
The mark [30] stands for this setting: second compound 10 µM, first compound 0.00316 µM.
[31] abbreviates: second compound 10 µM, first compound 0.01 µM.
Setting [32] is: second compound 10 µM, first compound 0.0316 µM.
The mark [33] stands for this setting: second compound 10 µM, first compound 0.1 µM.
Setting [34] is: second compound 10 µM, first compound 0.316 µM.
The mark [35] stands for this setting: second compound 10 µM, first compound 1 µM.

In general, IC50 refers to the concentration that inhibits the measured activity by half. As usually defined, the viability, T/C is the result in the treated group divided by that in the control group, in per cent.
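Further: seven day compound exposure before luminescent viability read.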
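Wherever viability, T/C is given: 100% = DMSO vehicle control wells.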

Consider `CC1COCCN1c1cc(-c2ccnn2C)c2ccnc(-c3ccn[nH]3)c2n1` (centres undefined) + NC1CCC(NC2CC2c2ccccc2)CC1, for which the IC50 was less than 3.16 nM under setting [1]; less than 3.16 nM under setting [2]; less than 3.16 nM under setting [3]; less than 3.16 nM under setting [4]; less than 3.16 nM under setting [5]. In addition, the viability, T/C by setting is: under setting [6], 14.1%; under setting [7], 12.3%; under setting [8], 13%; under setting [9], 16.4%; under setting [10], 18.4%; under setting [11], 19.3%. Besides, the viability, T/C runs as follows: under setting [12], 15.7%; under setting [13], 14.8%; under setting [14], 12%; under setting [15], 15.7%; under setting [16], 16.9%; under setting [17], 18.3%. For the same compound, the viability, T/C was 14.4% under setting [18]; 15.1% under setting [19]; 13.5% under setting [20]; 14.2% under setting [21]; 14.8% under setting [22]; 17.2% under setting [23]. Moreover, the viability, T/C under setting [24] is 15.7%; the viability, T/C under setting [25] is 15.5%; the viability, T/C under setting [26] was 12.2%; the viability, T/C under setting [27] is 13.5%; the viability, T/C under setting [28] is 15.3%; the viability, T/C under setting [29] was 16%. Further, the viability, T/C was 13.7% under setting [30]; 14% under setting [31]; 12.3% under setting [32]; 12.5% under setting [33]; 14.2% under setting [34]; 17.3% under setting [35].
Take `NS(=O)(=O)OCC1CC(n2ccc3c(NC4CCc5ccccc54)ncnc32)CC1O` (centres undefined): the viability, T/C reads like this: (compound 0.00949 µM) 81.2% and 90.5%; (compound 0.03 µM) 15.7% and 18%; (compound 0.0949 µM) 2.87% and 3.52%; (compound 0.3 µM) 1.94% and 1.72%; (compound 0.949 µM) 1.98% and 1.67%; (compound 3 µM) 1.78% and 1.54%. Also, the IC50 (curve of compound) is 16.4 nM and 18.1 nM.
`Cn1ncnc1C1c2n[nH]c(=O)c3cc(F)cc(c23)NC1c1ccc(F)cc1` (centres undefined) + NC1CC1c1ccc(-c2cccc(O)c2)cc1: the IC50 was greater than 100 nM under setting [1]; greater than 100 nM under setting [2]; greater than 100 nM under setting [3]; greater than 100 nM under setting [4]; 6.46 nM under setting [5]. Also, the viability, T/C by setting is: (second compound 0.1 µM, first compound 0.000316 µM) 87.2%; (second compound 0.1 µM, first compound 0.001 µM) 83.4%; under setting [6], 76.7%; under setting [7], 71.2%; under setting [8], 67.3%; under setting [9], 65.5%. Further, the viability, T/C is, setting by setting: (second compound 0.316 µM, first compound 0.000316 µM) 71%; (second compound 0.316 µM, first compound 0.001 µM) 75%; under setting [12], 67%; under setting [13], 63.4%; under setting [14], 57.8%; under setting [15], 62.2%. For the same compound, the viability, T/C is 72.2% (second compound 1 µM, first compound 0.000316 µM); 62.8% (second compound 1 µM, first compound 0.001 µM); 67.3% under setting [18]; 58.1% under setting [19]; 64% under setting [20]; 60.3% under setting [21]. The viability, T/C (second compound 3.16 µM, first compound 0.000316 µM) is 69.2%; the viability, T/C (second compound 3.16 µM, first compound 0.001 µM) is 64.2%; the viability, T/C under setting [24] was 59.7%; the viability, T/C under setting [25] was 54.5%; the viability, T/C under setting [26] is 50.5%; the viability, T/C under setting [27] is 52.5%. Besides, the viability, T/C was 51.9% (second compound 10 µM, first compound 0.000316 µM); 58% (second compound 10 µM, first compound 0.001 µM); 51.9% under setting [30]; 48.3% under setting [31]; 43.6% under setting [32]; 43.6% under setting [33].
Turning to `COc1cc(Nc2ncc3c(n2)-c2ccc(Cl)cc2C(c2c(F)cccc2OC)=NC3)ccc1C(=O)O` + NC1CCC(NC2CC2c2ccccc2)CC1, the IC50 was less than 3.16 nM under setting [1]; less than 3.16 nM under setting [2]; less than 3.16 nM under setting [3]; less than 3.16 nM under setting [4]; less than 3.16 nM under setting [5]. Further, the viability, T/C was 32.5% under setting [6]; 37.7% under setting [7]; 33.5% under setting [8]; 28.6% under setting [9]; 22.4% under setting [10]; 16.5% under setting [11]. For the same compound, the viability, T/C was 31.7% under setting [12]; 39.2% under setting [13]; 32.5% under setting [14]; 24.6% under setting [15]; 22.5% under setting [16]; 14.3% under setting [17]. Also, the viability, T/C under setting [18] was 35.6%; the viability, T/C under setting [19] was 34.7%; the viability, T/C under setting [20] was 34.8%; the viability, T/C under setting [21] was 29.3%; the viability, T/C under setting [22] is 18.3%; the viability, T/C under setting [23] is 14.3%. The viability, T/C was 30.2% under setting [24]; 32.6% under setting [25]; 29.4% under setting [26]; 25.9% under setting [27]; 21.5% under setting [28]; 14.9% under setting [29]. Further, the viability, T/C runs as follows: under setting [30], 28.3%; under setting [31], 36.8%; under setting [32], 30.9%; under setting [33], 25.2%; under setting [34], 19.9%; under setting [35], 15.3%.
As to `COc1cc(C2c3cc4c(cc3C(OC3OC5COC(C)OC5C(O)C3O)C3COC(=O)C23)OCO4)cc(OC)c1O` (centres undefined), the viability, T/C by setting is: (compound 0.00949 µM) 91.1% and 92%; (compound 0.03 µM) 57.8% and 69.4%; (compound 0.0949 µM) 26.8% and 28.4%; (compound 0.3 µM) 17.8% and 16.7%; (compound 0.949 µM) 8.57% and 7.24%; (compound 3 µM) 5.06% and 4.06%. Besides, for the setting “curve of compound”, the IC50 was 39.7 nM and 52.7 nM.
